Key:
Experiment in all cases: NCI60 antitumor screening
Type in all cases: cell-based, human
CCRF-CEM = tested on: CCRF-CEM
OVCAR-5 = tested on: OVCAR-5
PC-3 = tested on: PC-3
MOLT-4 = tested on: MOLT-4
NCI-H23 = tested on: NCI-H23
HOP-92 = tested on: HOP-92
UO-31 = conditions: Homo sapiens; 10 μM single dose; UO-31 (renal cancer); read-out: growth inhibition percent (GI%)
MDA-MB-468 = tested on: MDA-MB-468
NCI-H226 = tested on: NCI-H226
UACC-62 = tested on: UACC-62
HT29 = tested on: HT29
HL-60(TB) = tested on: HL-60(TB)
ACHN = tested on: ACHN
NCI-H522 = tested on: NCI-H522
CAKI-1 = tested on: CAKI-1
SK-MEL-5 = tested on: SK-MEL-5
IGROV1 = tested on: IGROV1
HCC-2998 = tested on: HCC-2998
BT-549 = tested on: BT-549
[1] = Homo sapiens, MDA-MB-468, five-dose

N#Cc1c(-c2ccc(F)cc2)nc(SCc2ccccc2)nc1N1CCNCC1 [4e, 2-(Benzylthio)-4-(4-fluorophenyl)-6-(piperazin-1-yl) pyrimidine-5-carbonitrile]
GI50 (CCRF-CEM; Homo sapiens, CCRF-CEM, five-dose): 13.9 µM | CC50 (CCRF-CEM; Homo sapiens, CCRF-CEM, five-dose, read-out: LC50 (the source's name)): 69 µM | inhibition at 10 µM (CCRF-CEM; Homo sapiens, 10 μM single dose, CCRF-CEM (leukaemia), read-out: growth inhibition percent (GI%)): > 100% | TGI (CCRF-CEM; five-dose): 31.00 µM | GI50 (OVCAR-5; Homo sapiens, OVCAR-5, five-dose): 14.1 µM | CC50 (OVCAR-5; Homo sapiens, OVCAR-5, five-dose, read-out: LC50 (the source's name)): 54.2 µM | inhibition at 10 µM (OVCAR-5; Homo sapiens, 10 μM single dose, OVCAR-5 (ovarian cancer), read-out: growth inhibition percent (GI%)): > 100% | TGI (OVCAR-5; five-dose): 27.60 µM | GI50 (PC-3; Homo sapiens, PC-3, five-dose): 11.8 µM | CC50 (PC-3; Homo sapiens, PC-3, five-dose, read-out: LC50 (the source's name)): 56.4 µM | inhibition at 10 µM (PC-3; Homo sapiens, 10 μM single dose, PC-3 (prostate cancer), read-out: growth inhibition percent (GI%)): > 100% | TGI (PC-3; five-dose): 25.80 µM | GI50 (MOLT-4; Homo sapiens, MOLT-4, five-dose): 7.07 µM | CC50 (MOLT-4; Homo sapiens, MOLT-4, five-dose, read-out: LC50 (the source's name)): 52.7 µM | inhibition at 10 µM (MOLT-4; Homo sapiens, 10 μM single dose, MOLT-4 (leukaemia), read-out: growth inhibition percent (GI%)): > 100% | TGI (MOLT-4; five-dose): 21.20 µM | GI50 (NCI-H23; Homo sapiens, NCI-H23, five-dose): 15.1 µM | CC50 (NCI-H23; Homo sapiens, NCI-H23, five-dose, read-out: LC50 (the source's name)): 56.5 µM | inhibition at 10 µM (NCI-H23; Homo sapiens, 10 μM single dose, NCI-H23 (non-small cell lung cancer), read-out: growth inhibition percent (GI%)): > 100% | TGI (NCI-H23; five-dose): 29.30 µM | GI50 (HOP-92; Homo sapiens, HOP-92, five-dose): 4.2 µM | CC50 (HOP-92; Homo sapiens, HOP-92, five-dose, read-out: LC50 (the source's name)): 48.4 µM | inhibition at 10 µM (HOP-92; Homo sapiens, 10 μM single dose, HOP-92 (non-small cell lung cancer), read-out: growth inhibition percent (GI%)): > 100% | TGI (HOP-92; five-dose): 18.10 µM | inhibition at 10 µM (UO-31): > 100% | GI50 (MDA-MB-468; [1]): 6.71 µM | LC50 (MDA-MB-468; [1]): 51.6 µM | inhibition at 10 µM (MDA-MB-468; Homo sapiens, 10 μM single dose, MDA-MB-468 (breast cancer), read-out: growth inhibition percent (GI%)): > 100% | TGI (MDA-MB-468; five-dose): 21.30 µM | GI50 (NCI-H226; Homo sapiens, NCI-H226, five-dose): 13.8 µM | CC50 (NCI-H226; Homo sapiens, NCI-H226, five-dose, read-out: LC50 (the source's name)): 81.3 µM | inhibition at 10 µM (NCI-H226; Homo sapiens, 10 μM single dose, NCI-H226 (non-small cell lung cancer), read-out: growth inhibition percent (GI%)): > 100% | TGI (NCI-H226; five-dose): 33.40 µM | GI50 (UACC-62; Homo sapiens, UACC-62, five-dose): 14.4 µM | CC50 (UACC-62; Homo sapiens, UACC-62, five-dose, read-out: LC50 (the source's name)): 55 µM | inhibition at 10 µM (UACC-62; Homo sapiens, 10 μM single dose, UACC-62 (melanoma), read-out: growth inhibition percent (GI%)): > 100% | TGI (UACC-62; five-dose): 28.20 µM | inhibition at 10 µM (HT29; Homo sapiens, HT-29, 10 μM single dose, HT29 (colon cancer), read-out: growth inhibition percent (GI%)): > 100% | GI50 (HT29; Homo sapiens, HT-29, five-dose): 3.3 µM | CC50 (HT29; Homo sapiens, HT-29, five-dose, read-out: LC50 (the source's name)): 36.6 µM | TGI (HT29; five-dose): 10.50 µM | GI50 (HL-60(TB); Homo sapiens, HL-60, five-dose): 4.5 µM | CC50 (HL-60(TB); Homo sapiens, HL-60, five-dose, read-out: LC50 (the source's name)): 46.5 µM | inhibition at 10 µM (HL-60(TB); Homo sapiens, 10 μM single dose, HL-60(TB) (leukaemia), read-out: growth inhibition percent (GI%)): > 100% | TGI (HL-60(TB); five-dose): 17.30 µM | GI50 (ACHN; Homo sapiens, ACHN, five-dose): 14 µM | LC50 (ACHN; Homo sapiens, ACHN, five-dose): 54 µM | inhibition at 10 µM (ACHN; Homo sapiens, 10 μM single dose, ACHN (renal cancer), read-out: growth inhibition percent (GI%)): > 100% | TGI (ACHN; five-dose): 27.50 µM | GI50 (NCI-H522; Homo sapiens, NCI-H522, five-dose): 11.3 µM | CC50 (NCI-H522; Homo sapiens, NCI-H522, five-dose, read-out: LC50 (the source's name)): 55.8 µM | inhibition at 10 µM (NCI-H522; Homo sapiens, 10 μM single dose, NCI-H522 (non-small cell lung cancer), read-out: growth inhibition percent (GI%)): > 100% | TGI (NCI-H522; five-dose): 25.10 µM | GI50 (CAKI-1; Homo sapiens, CAKI-1, five-dose): 16 µM | CC50 (CAKI-1; Homo sapiens, CAKI-1, five-dose, read-out: LC50 (the source's name)): 55.1 µM | inhibition at 10 µM (CAKI-1; Homo sapiens, 10 μM single dose, CAKI-1 (renal cancer), read-out: growth inhibition percent (GI%)): > 100% | TGI (CAKI-1; five-dose): 29.70 µM | GI50 (SK-MEL-5; Homo sapiens, SK-MEL-5, five-dose): 15.7 µM | CC50 (SK-MEL-5; Homo sapiens, SK-MEL-5, five-dose, read-out: LC50 (the source's name)): 54.5 µM | inhibition at 10 µM (SK-MEL-5; Homo sapiens, 10 μM single dose, SK-MEL-5 (melanoma), read-out: growth inhibition percent (GI%)): > 100% | TGI (SK-MEL-5; five-dose): 29.20 µM | inhibition at 10 µM (IGROV1; Homo sapiens, IGROV-1, 10 μM single dose, IGROV1 (ovarian cancer), read-out: growth inhibition percent (GI%)): > 100% | GI50 (IGROV1; Homo sapiens, IGROV-1, five-dose): 14.7 µM | CC50 (IGROV1; Homo sapiens, IGROV-1, five-dose, read-out: LC50 (the source's name)): 56.7 µM | TGI (IGROV1; five-dose): 28.90 µM | GI50 (HCC-2998; Homo sapiens, HCC 2998, five-dose): 1.76 µM | CC50 (HCC-2998; Homo sapiens, HCC 2998, five-dose, read-out: LC50 (the source's name)): 5.89 µM | inhibition at 10 µM (HCC-2998; Homo sapiens, 10 μM single dose, HCC-2998 (colon cancer), read-out: growth inhibition percent (GI%)): > 100% | TGI (HCC-2998; five-dose): 3.22 µM | GI50 (BT-549; Homo sapiens, BT-549, five-dose): 13 µM | CC50 (BT-549; Homo sapiens, BT-549, five-dose, read-out: LC50 (the source's name)): 53.6 µM | inhibition at 10 µM (BT-549; Homo sapiens, 10 μM single dose, BT-549 (breast cancer), read-out: growth inhibition percent (GI%)): > 100% | TGI (BT-549; five-dose): 26.40 µM
